Laboratory results taken from patent publication US10300071B2, “Compositions and methods for inhibition of mycobacteria” (priority 2014, dated 2019).
Values after ≈ are worked out from the molar mass of the structure shown. Read-outs that look alike come from different tables or passages of the source.

Key:
[1] = biological target: Mtb AccD6 (Mycobacterium tuberculosis, UniProt P9WQH5); assay: biochemical; type: biochemical; details: for IC50: 300 μM malonyl-CoA, inhibitor 10 μM to 2000 μM
[2] = test system: Mtb strain mc^2-7000; assay: microbe, parasite or virus in culture; type: cell-based, Mycobacterium tuberculosis; details: 6 days incubation at 37° C., resazurin, read on the 7th day
[3] = test system: human fibroblast
[4] = test system: S. cerevisiae
[5] = Mycobacterium tuberculosis, 144 h, read-out: MIC

Chain of Mtb AccD6 (P9WQH5 whole entry, looked up): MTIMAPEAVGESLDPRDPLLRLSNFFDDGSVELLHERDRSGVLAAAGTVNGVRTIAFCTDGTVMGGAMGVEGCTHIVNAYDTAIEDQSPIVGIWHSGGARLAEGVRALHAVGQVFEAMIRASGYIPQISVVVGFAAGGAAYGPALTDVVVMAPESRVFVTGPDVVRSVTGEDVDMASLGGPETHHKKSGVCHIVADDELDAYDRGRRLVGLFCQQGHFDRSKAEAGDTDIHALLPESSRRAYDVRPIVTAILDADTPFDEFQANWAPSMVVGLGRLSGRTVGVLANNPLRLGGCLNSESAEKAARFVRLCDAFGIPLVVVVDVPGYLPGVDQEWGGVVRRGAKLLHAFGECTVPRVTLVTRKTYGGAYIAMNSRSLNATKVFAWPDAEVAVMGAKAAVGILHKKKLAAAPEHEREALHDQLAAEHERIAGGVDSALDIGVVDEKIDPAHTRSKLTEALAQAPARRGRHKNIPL

Row | Structure (SMILES) | IC50 ([1]; read-out: IC50) [µM] | MIC [2] | concentrations at which not toxic, human fibroblast cytotoxicity [3] [µM] | concentrations at which not toxic, s. cerevisiae cytotoxicity [4] [µM] | MIC [2, 5] [µM] | inhibition at 20 µM ([1]; read-out: inhibition at 20 uM) [%] | IC50 [1]
1 | CC(C)NC(=O)Nc1ccc(Oc2nc3cc(Cl)ccc3s2)cc1 [NZ-376, 1-{4-[(5-chloro-1,3-benzothiazol-2-yl)oxy]phenyl}-3-(propan-2-yl)urea] | 0.874 | Not Active | ≥ 100 | ≥ 100 | – | – | –
2 | O=C(O)Cc1ccc(Oc2nc3ccc(Cl)cc3s2)cc1 [NZ-287, 2-{4-[(6-chloro-1,3-benzothiazol-2-yl)oxy]phenyl}acetic acid] | 0.52 | – | ≥ 100 | ≥ 100 | 12 (≈ 3.84 µg/mL) | – | –
3 | CNC(=O)Cc1ccc(Oc2nc3cc(F)c(F)cc3s2)cc1 [NZ-400, 2-{4-[(5,6-difluoro-1,3-benzothiazol-2-yl)oxy]phenyl}-N-methylacetamide] | 0.21 | – | ≥ 100 | ≥ 100 | 0.61 (≈ 0.204 µg/mL) | – | –
4 | CC(C(=O)N1CCNCC1)c1ccc(Oc2nc3ccc(Cl)cc3s2)cc1 (stereo not drawn) [NZ-364, 2-{4-[(6-chloro-1,3-benzothiazol-2-yl)oxy]phenyl}-1-(piperazin-1-yl)propan-1-one] | – | – | ≥ 100 | ≥ 100 | 1.34 (≈ 0.539 µg/mL) | 20 | –
5 | CONC(=O)Cc1ccc(Oc2nc3ccc(Cl)cc3s2)cc1 [NZ-293, 2-{4-[(6-chloro-1,3-benzothiazol-2-yl)oxy]phenyl}-N-methoxyacetamide] | 1 | – | ≥ 100 | ≥ 100 | 3 (≈ 1.05 µg/mL) | – | –
6 | COC(=O)C(C)c1ccc(Oc2cnc3cc(Cl)ccc3n2)cc1 (stereo not drawn) [NZ-308, methyl 2-{4-[(6-chloroquinoxalin-2-yl)oxy]phenyl}propanoate] | 8 | – | ≥ 100 | ≥ 100 | 4.5 (≈ 1.54 µg/mL) | – | –
7 | COC(=O)Cn1ccc(Oc2nc3ccc(Cl)cc3s2)cc1=O [NZ-396, methyl 2-{4-[(6-chloro-1,3-benzothiazol-2-yl)oxy]-2-oxo-1,2-dihydropyridin-1-yl}acetate] | 11.3 | – | ≥ 100 | ≥ 100 | 6.19 to 8.6 | – | –
8 | CC(C)NC(=O)Nc1ccc(Oc2nc3ccc(S(C)(=O)=O)cc3s2)cc1 [NZ-380, 1-{4-[(6-methanesulfonyl-1,3-benzothiazol-2-yl)oxy]phenyl}-3-(propan-2-yl)urea] | – | – | ≥ 100 | ≥ 100 | 3.4 (≈ 1.38 µg/mL) | – | Not Active
9 | CC(C)NC(=O)Nc1ccc(Oc2nc3c(F)cccc3s2)cc1 [NZ-374, 1-{4-[(4-fluoro-1,3-benzothiazol-2-yl)oxy]phenyl}-3-(propan-2-yl)urea] | – | Not Active | ≥ 100 | ≥ 100 | – | – | Not Active
10 | CNC(=O)C(C)c1ccc(Oc2nc3ccc(F)cc3s2)cc1 (stereo not drawn) [NZ-386, 2-{4-[(6-fluoro-1,3-benzothiazol-2-yl)oxy]phenyl}-N-methylpropanamide] | 0.62 | – | ≥ 100 | ≥ 100 | 1.1 to 2.1 (≈ 0.363 to 0.694 µg/mL) | – | –
11 | CC(C(=O)NC(CO)CO)c1ccc(Oc2nc3ccc(Cl)cc3s2)cc1 (stereo not drawn) [NZ-371, 2-{4-[(6-chloro-1,3-benzothiazol-2-yl)oxy]phenyl}-N-(1,3-dihydroxypropan-2-yl)propanamide] | 0.86 | – | ≥ 100 | ≥ 100 | 20 (≈ 8.13 µg/mL) | – | –
12 | CC(C(=O)O)c1ccc(Oc2cnc3cc(Cl)ccc3n2)cc1 (stereo not drawn) [NZ-309, 2-{4-[(6-chloroquinoxalin-2-yl)oxy]phenyl}propanoic acid] | 0.172 | – | ≥ 100 | ≥ 100 | 12 (≈ 3.95 µg/mL) | – | –
13 | O=C(O)Cc1ccc(Oc2nc3ccc(F)cc3s2)cc1 [NZ-299, 2-{4-[(6-fluoro-1,3-benzothiazol-2-yl)oxy]phenyl}acetic acid] | 0.324 | – | ≥ 100 | ≥ 100 | 12 (≈ 3.64 µg/mL) | – | –
14 | CC(C(=O)N(C)C)c1ccc(Oc2nc3ccc(Cl)cc3s2)cc1 (stereo not drawn) [NZ-368, 2-{4-[(6-chloro-1,3-benzothiazol-2-yl)oxy]phenyl}-N,N-dimethylpropanamide] | 3.6 | – | ≥ 100 | 25 to 50 | 2.07 (≈ 0.747 µg/mL) | – | –
15 | CC(C)NC(=O)C(C)c1ccc(Oc2nc3ccc(Cl)cc3s2)cc1 (stereo not drawn) [NZ-327, 2-{4-[(6-chloro-1,3-benzothiazol-2-yl)oxy]phenyl}-N-(propan-2-yl)propanamide] | 0.3 | – | ≥ 100 | ≥ 100 | 12 (≈ 4.5 µg/mL) | – | –
16 | CONC(=O)C(C)c1ccc(Oc2nc3ccc(F)cc3s2)cc1 (racemic) [NZ-330, 2-{4-[(6-fluoro-1,3-benzothiazol-2-yl)oxy]phenyl}-N-methoxypropanamide] | 0.24 | – | ≥ 100 | ≥ 100 | 1.5 (≈ 0.52 µg/mL) | – | –
17 | CNC(=O)Cc1ccc(Oc2nc3ccc(Cl)cc3s2)cc1O [NZ-389, 2-{4-[(6-chloro-1,3-benzothiazol-2-yl)oxy]-2-hydroxyphenyl}-N-methylacetamide] | 0.21 | – | ≥ 100 | ≥ 100 | 1.2 to 2.2 (≈ 0.419 to 0.767 µg/mL) | – | –
18 | CC(C)(Oc1ccc(Oc2nc3ccc(Cl)cc3s2)cc1)C(=O)O [NZ-318, 2-{4-[(6-chloro-1,3-benzothiazol-2-yl)oxy]phenoxy}-2-methylpropanoic acid] | 1.5 | – | ≥ 100 | ≥ 100 | 12 (≈ 4.37 µg/mL) | – | –
19 | CONC(=O)C(C)c1ccc(Oc2cnc3cc(Cl)ccc3n2)cc1 (stereo not drawn) [NZ-310, 2-{4-[(6-chloroquinoxalin-2-yl)oxy]phenyl}-N-methoxypropanamide] | 0.182 | – | ≥ 100 | ≥ 100 | 6 (≈ 2.15 µg/mL) | – | –
20 | CNC(=O)Cc1ccc(O)cc1Oc1nc2ccc(Cl)cc2s1 [NZ-390, 2-{2-[(6-chloro-1,3-benzothiazol-2-yl)oxy]-4-hydroxyphenyl}-N-methylacetamide] | 15.4 | Not Active | ≥ 100 | ≥ 100 | – | – | –
21 | COc1ccc2nc(Oc3ccc(C(C)C(=O)O)cc3)sc2c1 (stereo not drawn) [NZ-334, 2-{4-[(6-methoxy-1,3-benzothiazol-2-yl)oxy]phenyl}propanoic acid] | 10 | – | ≥ 100 | ≥ 100 | 25 (≈ 8.23 µg/mL) | – | –
